Laboratory results taken from ChEMBL document CHEMBL1154198, “Chemical genetics of Plasmodium falciparum” (Nature, 2010).

What was measured:
Plasmodium falciparum [1] = assay: ST_JUDE: Plasmodium falciparum K1 EC50 (uM) as measured by SYBR green dye; assay type: functional, organism-based
Plasmodium falciparum [2] = assay: ST_JUDE: Plasmodium falciparum 3D7 EC50 (uM) as measured by SYBR green dye; assay type: functional, organism-based

Row | SMILES | EC50 (Plasmodium falciparum [1]) [µM] | EC50 (Plasmodium falciparum [2]) [µM]
1 | CCN(CC)CCCNc1nc2cc(OC)c(OC)cc2c2nc(-c3ccccc3)nn12 | > 15 | > 15
2 | O=C1CC(O)(C(F)(F)C(F)(F)OC(F)(F)F)Oc2ccc(Cl)cc21 (stereo not drawn) | > 15 | > 15
3 | COc1ccc(CN2CCCC(N3CCN(c4ccc(F)cc4)CC3)C2)c(O)c1 (stereo not drawn) | 1.04 | 1.61
4 | Oc1c(C(Nc2ccccn2)c2cccc(Cl)c2)cc(Cl)c2cccnc12 (stereo not drawn) | 4.69 | 7.66
5 | CC[N+](CC)(CC)CCCOC1CC(C)CCC1C(C)C (stereo not drawn) | 4.65 | > 15
6 | COc1ccc(C2CC(=O)C3=C(C2)NC(=O)CC3c2ccc(SC)cc2)cc1OC (stereo not drawn) | 4.79 | 3.65
7 | C#CC[n+]1ccn2c(C)ccc2c1C | 1.69 | 5.58
8 | O=C(O)c1ccc(NC2=C(n3nnc4ccccc43)C(=O)c3ccccc3C2=O)cc1 | 1.49 | > 15
9 | Cc1ccc(Nc2cc(C)nc(-n3cc([N+](=O)[O-])cn3)n2)cc1 | > 15 | 7.25
10 | Cc1cc(C)c2c(=O)cc(C(Cl)(Cl)Cl)oc2c1 | > 15 | > 15
11 | CN1C=CC(=Cc2sc3ccccc3[n+]2C)C=C1 | 0.389 | 0.873
12 | CCCC(=O)NC(Nc1ccc(S(=O)(=O)Nc2cc(C)on2)cc1)(C(=O)OCC)C(F)(F)F (stereo not drawn) | 5.22 | 1.85
13 | CN(CCO)CCCCOc1ccc2c(c1)C(=O)c1cc(OCCCCN(C)CCO)ccc1-2 | 3.64 | > 15
14 | CCO/C(O)=C1\C(CC)=NC2=C(C(=O)CC(C)(C)C2)C1c1ccc(Cl)cc1Cl (stereo not drawn) | 1.22 | 1.33
15 | CN(C)CCCNc1c2ccccc2nc2ccccc12 | 3.71 | 0.531
16 | CC(C)(C)CC(C)(C)c1ccc(O)c(CN2CCN(c3ccccc3)CC2)c1 | 0.174 | 0.354
17 | O=[N+]([O-])c1nonc1NCn1nnc2ccccc21 | 7.28 | 5.07
18 | CNC(=O)C(=O)N1CCC2(CC1)OCCN2S(=O)(=O)c1ccc(C)cc1 | > 15 | > 15
19 | CC1(C)Cc2ccccc2C(NCC(=O)O)=N1 | > 15 | > 15
20 | Cc1cc(Nc2ccc(F)c(Cl)c2)n2nc(C)nc2n1 | 9.17 | 3.2

Next, values leading:

Row | EC50 (Plasmodium falciparum [1]) [µM] | EC50 (Plasmodium falciparum [2]) [µM] | SMILES
21 | > 15 | > 15 | O=C(COc1cccc(Br)c1)N/N=C/c1ccc(Br)cc1
22 | 4.01 | 3.97 | C[n+]1ccc(C=Cc2ccc(O)cc2)cc1
23 | 6.06 | 6.83 | COC(=O)CNC(c1ccccc1)c1cc(Br)ccc1NC(=O)c1ccccc1 (stereo not drawn)
24 | 1.31 | 3.83 | Cc1ccc(O)c(Nc2nc(-c3ccccc3)nc3ccccc23)c1
25 | 2.02 | 1.75 | CC(=O)c1cccc(NC(=O)C2c3ccccc3C(=O)N(C3CCCC3)C2c2cccs2)c1 (stereo not drawn)
26 | 4.27 | 4.9 | N=C(N)N/N=C/c1ccc(OCc2ccc(Cl)cc2Cl)cc1
27 | 3.36 | > 15 | Cc1ccc(C)c(C(C)NC(=S)Nc2ccc([N+](=O)[O-])cc2)c1 (stereo not drawn)
28 | > 15 | > 15 | CCOC(=O)c1ccc(Nc2nc3nonc3nc2NCc2ccco2)cc1
29 | 5.13 | > 15 | O=C(Cc1ccc(Cl)cc1)Nc1cc(C(F)(F)F)cc(C(F)(F)F)c1
30 | 4.14 | 3.81 | CCc1cccc(NC(=O)C2c3ccccc3C(=O)N(CCOC)C2c2cccs2)c1 (stereo not drawn)
31 | 5.31 | 6.82 | Cc1cccc2sc(N(Cc3cccnc3)C(=O)c3ccco3)nc12
32 | > 15 | > 15 | CCCC(=O)N1CCN(c2ccc(NC(=O)c3cccc([N+](=O)[O-])c3)cc2Cl)CC1
33 | 0.725 | 1.97 | CCCCCCn1c(=N)n(CC(O)COc2cccc(C)c2)c2ccccc21 (stereo not drawn)
34 | > 15 | > 15 | Cc1onc(-c2ccccc2Cl)c1C(=O)Nc1cc(Cl)ccc1Cl
35 | > 15 | > 15 | O=C(Nc1cccc(OC(F)(F)F)c1)c1ccc(Br)o1
36 | 0.0458 | 0.0315 | CC(=O)N(C1=C(N(C)C)C(=O)c2ccccc2C1=O)c1ccc(I)cc1
37 | 3.45 | 1.78 | CCOC(=O)c1c(CN(CC)CC)n(-c2ccccc2)c2cc(Br)c(O)cc12
38 | 2.11 | 6.05 | CCC(C)c1ccc(NC(=O)c2cc(Br)ccc2OC)c(O)c1 (stereo not drawn)
39 | 9.28 | 0.577 | CCc1ccc(S(=O)(=O)Nc2ccc(Nc3nc(C)cc(Nc4ccc(OC)cc4)n3)cc2)cc1
40 | > 15 | > 15 | COc1ccc(C(=O)C2CCCN(Cc3ccc(OCCO)cc3)C2)cc1OC (stereo not drawn)
41 | 0.469 | 2.8 | CC[n+]1c(C=C2C=CN(C)C=C2)ccc2cc(C)ccc21
42 | > 15 | > 15 | NS(=O)(=O)c1ccc(NC(=O)Cc2ccc([N+](=O)[O-])cc2)cc1
43 | 7.71 | > 15 | COc1ccccc1[N+]1=C2CCCCN2C(O)(c2ccc(Cl)cc2)C1 (stereo not drawn)
44 | 5.82 | 4.85 | CCN(CC)c1ccc(C(NC(=O)C(C)C)c2ccc3cccnc3c2O)cc1 (stereo not drawn)
